Assay results published in ChEMBL document CHEMBL1130170, “Orally active trifluoromethyl ketone inhibitors of human leukocyte elastase” (J Med Chem, 1997).
Where a SMILES comes first, the peptide text is derived from it. The star is where a group is joined. CF3 = FC(F)(F)*; Moc = COC(=O)*

Legend:
Cricetinae gen. sp. [1] = assay: Effective dose in the Acute Hemarrhagic Assay model after oral administration; assay type: functional, Cricetulus griseus
[2] = Half-life of compound in plasma of hamster; assay type: ADME, organism-based; conditions: cricetinae
[3] = Oral integrated area under the concentration vs time curve, for compound in dog plasma; assay type: ADME, organism-based, Canis lupus familiaris
[4] = molecular target: T1, Angiotensin-converting enzyme (Oryctolagus cuniculus, UniProt P12822); assay: Binding affinity for rabbit lung Angiotensin I converting enzyme; No inhibition at 188 uM (highest concentration tested)
T1 sequence (P12822 whole entry): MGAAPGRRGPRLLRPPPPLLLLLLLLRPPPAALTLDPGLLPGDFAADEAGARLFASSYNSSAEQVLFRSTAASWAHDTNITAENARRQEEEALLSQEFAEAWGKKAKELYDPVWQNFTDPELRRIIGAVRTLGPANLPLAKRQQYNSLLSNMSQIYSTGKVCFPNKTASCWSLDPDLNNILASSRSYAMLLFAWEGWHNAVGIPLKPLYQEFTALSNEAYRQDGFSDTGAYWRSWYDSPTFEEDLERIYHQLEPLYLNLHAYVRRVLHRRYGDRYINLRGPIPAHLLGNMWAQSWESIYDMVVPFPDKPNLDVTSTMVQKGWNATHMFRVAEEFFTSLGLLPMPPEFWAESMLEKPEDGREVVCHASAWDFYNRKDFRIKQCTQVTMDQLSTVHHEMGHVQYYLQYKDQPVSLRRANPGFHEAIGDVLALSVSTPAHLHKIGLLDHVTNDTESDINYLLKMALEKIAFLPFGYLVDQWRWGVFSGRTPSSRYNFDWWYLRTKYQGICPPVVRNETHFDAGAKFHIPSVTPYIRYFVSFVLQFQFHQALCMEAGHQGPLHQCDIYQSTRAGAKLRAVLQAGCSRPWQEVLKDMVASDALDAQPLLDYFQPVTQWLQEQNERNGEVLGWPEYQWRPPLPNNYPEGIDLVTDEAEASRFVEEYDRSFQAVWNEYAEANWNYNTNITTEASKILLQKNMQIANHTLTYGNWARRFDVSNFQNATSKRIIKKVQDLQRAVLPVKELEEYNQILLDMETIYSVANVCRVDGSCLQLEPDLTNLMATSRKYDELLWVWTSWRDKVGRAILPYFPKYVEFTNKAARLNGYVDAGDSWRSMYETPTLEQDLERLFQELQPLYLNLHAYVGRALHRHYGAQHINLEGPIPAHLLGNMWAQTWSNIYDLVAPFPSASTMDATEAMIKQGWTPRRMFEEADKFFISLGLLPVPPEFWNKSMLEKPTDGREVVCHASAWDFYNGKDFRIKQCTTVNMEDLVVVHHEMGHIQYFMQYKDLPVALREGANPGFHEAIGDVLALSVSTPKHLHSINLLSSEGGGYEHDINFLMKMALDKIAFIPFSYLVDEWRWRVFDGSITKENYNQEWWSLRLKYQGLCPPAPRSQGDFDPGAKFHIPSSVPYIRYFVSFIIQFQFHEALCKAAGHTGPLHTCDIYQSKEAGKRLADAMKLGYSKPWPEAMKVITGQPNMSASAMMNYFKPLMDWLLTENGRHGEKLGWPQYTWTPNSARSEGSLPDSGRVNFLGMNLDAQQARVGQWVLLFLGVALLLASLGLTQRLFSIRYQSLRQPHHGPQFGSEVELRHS

[5] = Time of maximum concentration of compound in dog plasma.; assay type: ADME, organism-based, Canis lupus familiaris
Cricetinae gen. sp. [6] = assay: Effective dose in the Acute Hemarrhagic Assay model after i.v. administration; assay type: functional, Cricetulus griseus; conditions: iv
[7] = Maximum concentration of the unchanged compound in rat plasma, recorded in the period 0-6 hr post dose.; assay type: ADME, organism-based
[8] = Time of maximum concentration of compound in rat plasma.; assay type: ADME, organism-based
[9] = Maximum concentration of the unchanged compound in hamster plasma, recorded in the period 0-6 hr post dose.; assay type: ADME, organism-based; conditions: cricetinae
[10] = Bioavailability in rat; assay type: ADME, organism-based; conditions: in vivo
[11] = Bioavailability in hamster; assay type: ADME, organism-based, Cricetulus griseus; conditions: chinese hamster, in vivo
[12] = Oral integrated area under the concentration vs time curve, for compound in rat plasma; assay type: ADME, organism-based
[13] = Maximum concentration of the unchanged compound in dog plasma, recorded in the period 0-6 hr post dose.; assay type: ADME, organism-based, Canis lupus familiaris
Kallikrein-1 = Kallikrein-1 (Homo sapiens, UniProt P06870); assay: Binding affinity for human urine kallikrein; No inhibition at 188 uM (highest concentration tested)
[14] = Half-life of compound in plasma of dog; assay type: ADME, organism-based, Canis lupus familiaris
[15] = Intravenous integrated area under the concentration vs time curve, for compound in rat plasma; assay type: ADME, organism-based
[16] = Time of maximum concentration of compound in hamster plasma.; assay type: ADME, organism-based; conditions: cricetinae
Monoamine oxidase = molecular target: T2, Monoamine oxidase (Homo sapiens, UniProt P21397+P27338); assay: Binding affinity for human plasma monoamine oxidase; No inhibition at 188 uM (highest concentration tested); assay type: cell-free
T2 sequence (P21397 whole entry): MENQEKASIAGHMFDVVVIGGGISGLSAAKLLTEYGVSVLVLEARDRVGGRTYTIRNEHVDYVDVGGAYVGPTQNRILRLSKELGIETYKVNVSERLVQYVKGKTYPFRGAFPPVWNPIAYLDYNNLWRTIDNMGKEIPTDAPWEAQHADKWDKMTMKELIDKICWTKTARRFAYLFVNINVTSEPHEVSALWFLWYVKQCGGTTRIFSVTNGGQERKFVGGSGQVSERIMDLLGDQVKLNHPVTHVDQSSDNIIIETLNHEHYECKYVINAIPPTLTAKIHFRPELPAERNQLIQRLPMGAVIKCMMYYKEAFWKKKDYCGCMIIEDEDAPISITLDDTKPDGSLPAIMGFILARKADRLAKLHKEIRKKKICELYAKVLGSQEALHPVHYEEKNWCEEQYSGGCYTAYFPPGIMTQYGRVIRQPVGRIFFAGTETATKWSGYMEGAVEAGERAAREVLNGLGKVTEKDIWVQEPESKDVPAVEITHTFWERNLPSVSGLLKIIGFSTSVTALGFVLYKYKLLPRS
T2 sequence (P27338 whole entry): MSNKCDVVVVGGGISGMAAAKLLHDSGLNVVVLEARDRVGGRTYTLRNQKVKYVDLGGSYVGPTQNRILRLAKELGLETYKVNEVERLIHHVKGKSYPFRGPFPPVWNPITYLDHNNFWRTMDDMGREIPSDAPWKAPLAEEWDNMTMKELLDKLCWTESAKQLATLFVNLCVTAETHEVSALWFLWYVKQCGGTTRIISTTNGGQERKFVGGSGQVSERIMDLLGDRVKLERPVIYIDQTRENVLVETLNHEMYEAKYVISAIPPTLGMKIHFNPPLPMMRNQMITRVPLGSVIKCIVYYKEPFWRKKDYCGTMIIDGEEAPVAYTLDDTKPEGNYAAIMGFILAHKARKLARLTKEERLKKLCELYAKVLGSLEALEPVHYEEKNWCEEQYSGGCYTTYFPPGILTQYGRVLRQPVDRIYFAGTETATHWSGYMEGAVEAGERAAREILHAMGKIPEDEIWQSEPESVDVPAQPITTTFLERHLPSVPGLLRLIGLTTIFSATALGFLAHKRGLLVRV

[17] = Oral integrated area under the concentration vs time curve, for compound in hamster plasma; assay type: ADME, organism-based; conditions: cricetinae
[18] = Half-life of compound in plasma of rat; assay type: ADME, organism-based

Kallikrein-1, sequence (P06870 whole entry): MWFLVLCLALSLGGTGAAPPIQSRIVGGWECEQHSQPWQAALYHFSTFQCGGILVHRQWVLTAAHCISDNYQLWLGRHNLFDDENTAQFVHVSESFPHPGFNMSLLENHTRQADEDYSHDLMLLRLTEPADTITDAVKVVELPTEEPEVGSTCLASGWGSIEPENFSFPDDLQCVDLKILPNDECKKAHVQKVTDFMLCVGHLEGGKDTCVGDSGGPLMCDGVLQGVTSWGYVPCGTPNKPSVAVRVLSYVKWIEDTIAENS

SMILES | ED50 (Cricetinae gen. sp. [1]) | half-life [2] | AUC [3] | Ki [4] | Tmax [5] | ED50 (Cricetinae gen. sp. [6]) | Cmax [7] | Tmax [8] | Cmax [9] | bioavailability [10] | bioavailability [11] | AUC [12] | Cmax [13] | Ki (Kallikrein-1) | half-life [14] | AUC [15] | Tmax [16] | Ki (Monoamine oxidase) | AUC [17] | half-life [18]
COC(=O)N[C@H](C(=O)N1CCC[C@H]1C(=O)N[C@H](C(=O)C(F)(F)F)C(C)C)C(C)C (Moc-Val-Pro-Val-CF3) | 2 mg/kg | 120 min | 6540 ng·h/mL | No inhibition | 19.8 min | 0.51 mg/kg | 3690 ng/mL | 30 min | 1460 ng/mL | 84% | 75% | 5480 ng·h/mL | 5440 ng/mL | No inhibition | 48.6 min | 6540 ng·h/mL | 15 min | No inhibition | 2160 ng·h/mL | 78 min
COc1ccc(C(=O)N[C@H](C(=O)N2CCC[C@H]2C(=O)N[C@H](C(=O)C(F)(F)F)C(C)C)C(C)C)cc1 (stereo in doubt; 1k) | 4.9 mg/kg | 72 min | 1250 ng·h/mL | No inhibition | 30 min | 0.59 mg/kg | 972 ng/mL | 15 min | 373 ng/mL | 82% | 26% | 1400 ng·h/mL | 382 ng/mL | No inhibition | 120 min | 1700 ng·h/mL | 30 min | No inhibition | 355 ng·h/mL | 49.2 min
